From patent US12721835B2, “Anticoccidial composition comprising violacein, and use thereof” (CJ CHEILJEDANG CORPORATION, priority 2020, dated 2026)

What was measured:
[1] = test system: Eimeria tenella, Eimeria acervulina, and Eimeria maxima; assay: In vivo anticoccidial activity upon complex inoculation of 3 kinds of protozoa (broilers, formulated feed); parameters: Oocyst index: scale not given here; details: 3 kinds infection; for Lesion index: lesion score x 10; for ACI: out of 200 points; for Lesion score: sum of duodenum, jejunum and appendix; for RWG(%): vs non-infected negative control
Description: An in vivo anticoccidial efficacy evaluation test was performed in an animal experiment facility in Chungcheongnam-do, South Korea. One-day-old male Ross broilers were individually weighed and randomly divided into groups to use in an experiment. Matters and conditions for experimental design were described in Table 5.
A breeding farm was managed according to the Korean poultry breeding management guidelines. Cages and the breeding farm were cleaned and disinfected before starting the test. The temperature of […] and the humidity of 40 to 50% of the breeding farm were maintained, and it was continuously monitored.
The feed was mixed in Neobase, and each material (salinomycin (Cheilbio Cheilsalino-60 product), violacein (CJ Cheiljedang)) was added to the feed, respectively, at a concentration described in Table 6 below to be self-mixed. Antibiotics and supplements were not used in general feed and mixed feed, and no anticoccidial agent other than each material was added. Broilers were fed ad libitum throughout the experiment period. After putting 8 1-day-age broilers in cages randomly placed for each of the control group or test group and breeding, general feed (Al-choi product) was fed for 7 days, and then the mixed feed prepared above was ingested by dividing by control group or test group.
The feed formulation administered to the control group (negative control group or positive control group) and test group and whether coccidiosis was induced by three kinds of protozoa were described in Table 6 below.
Coccidiosis induction was performed by oral inoculation (challenge inoculation) in an oral tube type of 10,000, 50,000, 50,000 oocysts (eggs) with over 90% mature (sporulation) Eimeria tenella, Eimeria acervulina, and Eimeria maxima per one individual to 14-day-old broilers.
The anticoccidial efficacy by test group designed in Example 2-2 above was shown as an anticoccidial index (ACI), and the anticoccidial index was calculated by the similar method to Example 1-3 above. However, in the present example, the protozoa of Eimeria tenella, Eimeria acervulina, and Eimeria maxima were challenge inoculated, so the lesion score was calculated by summing the scores for each of the duodenum, jejunum and appendix, respectively, differently from Example 1-3.

Eimeria tenella = assay: Intracellular protozoan propagation inhibition in MDBK cells (ITS-1 PCR); type: cell-based; details: read-out: Intracellular protozoan propagation inhibitory effect (%)
Description: In the present example, using MDBK cell line which is a representative animal cell known to cause Eimeria infection and propagation, the inhibition ability of intracellular protozoan invasion and intracellular protozoal propagation of the violacein was investigated.
100,000 MDBK cells (purchased from ATCC) were aliquoted in a 24-well plate, and then incubated at a temperature of 37° C. for 12 hours. The protozoan of Eimeria tenella was obtained similar to the method of Example 3 above. 200,000 protozoa per one well were added to wells in which cells were aliquoted, and cultured at a temperature of 41° C. for 24 hours, and then the cells were washed using PBS solution twice to remove protozoa which were not attached to the cells. Each material (violacein and anticoccidial agents, salinomycin, diclazuril and gallic acid) was treated to the cells by concentration, and further cultured at a temperature of 41° C. for 24 hours. A negative control group is a MDBK cell infected by protozoa, and a positive control group means a group in which salinomycin and diclazuril solution was incubated with the Eimeria tenella protozoan. After removing the cells and protozoa inside the cells through pipetting, DNA was extracted from the cells, and PCR was performed using E. tenella ITS-1 (Internal transcribed spacer-1) gene-specific primers. The sequences of the used primers were described in Table 9 above.
The intracellular protozoan propagation inhibition rate (%) through treatment of the material was calculated by comparing Ct values in the material treatment groups compared to the negative control group, and the result was shown in FIG. 3 and Table 10.

[2] = test system: Eimeria maxima (E. maxima) protozoa; assay: Heat resistance of violacein: protozoal death rate after heat exposure; type: cell-based
Description: In the present example, the heat resistance of the violacein was to be evaluated. […] 200,000 Eimeria maxima (E. maxima) protozoa were reacted to the violacein at various concentrations of 0.1 to 100 ppm at a temperature of 41° C. for 4 hours, and the protozoal death rate (%) was measured by the similar method to Example 3 above, and this was shown in FIG. 5 and Table 12. In Table 12 below, the control group means a violacein solution without treating the high temperature condition, and the protozoa alone means a group to which violacein was not treated.

[3] = test system: Eimeria maxima (E. maxima) protozoa (sporozoites); assay: Acid resistance of violacein: protozoal death rate after acid exposure; type: cell-based
Description: In the present example, the acid resistance of the violacein was to be evaluated. […] Then, it was neutralized (pH 7.0) by adding sodium hydroxide (NaOH) solution, and 200,000 Eimeria maxima (E. maxima) protozoa (sporozoites) were exposed to the violacein at various concentrations of 0.1 to 100 ppm diluted using PBS solution, and they were reacted at a temperature of 41° C. for 4 hours. In Table 11, the control group means a violacein treatment group without treating the acidic condition, and the protozoa alone means a group to which violacein was not treated.

SMILES: CC[C@@H](C(=O)[C@@H](C)[C@@H](O)[C@H](C)[C@@H]1O[C@@H]([C@@H](CC)C(=O)O)CC[C@@H]1C)[C@H]1O[C@]2(C=C[C@@H](O)[C@]3(CC[C@@](C)([C@H]4CC[C@](O)(CC)[C@H](C)O4)O3)O2)[C@H](C)C[C@@H]1C [Salinomycin, salinomycin, reference compound]
- ADG(g/d) after challenge inoculation ([1]; feed 60 ppm): 46.6 g/day
- Oocyst excretion amount/g ([1]; feed 60 ppm): 540000 g⁻¹
- Oocyst index ([1]; feed 60 ppm): 20.0
- Survival rate after challenge inoculation (%) ([1]; feed 60 ppm): 100%
- Lesion index ([1]; feed 60 ppm): 55
- ACI ([1]; feed 60 ppm): 130
- Lesion score ([1]; feed 60 ppm): 5.5
- RWG(%) ([1]; feed 60 ppm): 105.1%
- inhibition at 5 ppm (Eimeria tenella; MDBK, 24 h): 32.2%
- inhibition at 10 ppm (Eimeria tenella; MDBK, 24 h): 34.8%

SMILES: O=C1N=c2ccccc2=C1c1cc(-c2c[nH]c3ccc(O)cc23)[nH]c1O [Violacein, 3-(2-(5-Hydroxyindol-3-yl)-5-oxo-2-pyrrolin-4-ylidene)-2-indolinone]
- Death rate according to violacein treatment condition ([2]; 85° C., 10 min, 0.1 ppm): 62%
- Death rate according to violacein treatment condition ([2]; 85° C., 10 min, 1 ppm): 89%
- Death rate according to violacein treatment condition ([2]; 85° C., 10 min, 10 ppm): 99%
- Death rate according to violacein treatment condition ([2]; 85° C., 10 min, 100 ppm): 100%
- Death rate according to violacein treatment condition ([2]; 90° C., 10 min, 0.1 ppm): 65%
- Death rate according to violacein treatment condition ([2]; 90° C., 10 min, 1 ppm): 88%
- Death rate according to violacein treatment condition ([2]; 90° C., 10 min, 10 ppm): 99%
- Death rate according to violacein treatment condition ([2]; 90° C., 10 min, 100 ppm): 100%
- Death rate according to violacein treatment condition ([2]; 95° C., 10 min, 0.1 ppm): 69%
- Death rate according to violacein treatment condition ([2]; 95° C., 10 min, 1 ppm): 90%
- Death rate according to violacein treatment condition ([2]; 95° C., 10 min, 10 ppm): 99%
- Death rate according to violacein treatment condition ([2]; 95° C., 10 min, 100 ppm): 100%
- Death rate according to violacein treatment condition ([2]; Control group (no high temperature), 0.1 ppm): 64%
- Death rate according to violacein treatment condition ([2]; Control group (no high temperature), 1 ppm): 85%
- Death rate according to violacein treatment condition ([2]; Control group (no high temperature), 10 ppm): 100%
- Death rate according to violacein treatment condition ([2]; Control group (no high temperature), 100 ppm, 41° C. 4 hours): 100%
- Heat resistance (killing efficacy after high temperature) ([2]; high temperature (80 to 95° C.), 10 minutes): the protozoal killing efficacy of violacein did not appear
- ADG(g/d) after challenge inoculation ([1]; feed 10 ppm): 40.4 g/day
- Oocyst excretion amount/g ([1]; feed 10 ppm): 680000 g⁻¹
- Oocyst index ([1]; feed 10 ppm): 31.4
- Survival rate after challenge inoculation (%) ([1]; feed 10 ppm): 100%
- Lesion index ([1]; feed 10 ppm): 51
- ACI ([1]; feed 10 ppm): 109
- Lesion score ([1]; feed 10 ppm): 5.1
- RWG(%) ([1]; feed 10 ppm): 91.1%
- ADG(g/d) after challenge inoculation ([1]; feed 15 ppm): 45.2 g/day
- Oocyst excretion amount/g ([1]; feed 15 ppm): 380000 g⁻¹
- Oocyst index ([1]; feed 15 ppm): 15.7
- Survival rate after challenge inoculation (%) ([1]; feed 15 ppm): 100%
- Lesion index ([1]; feed 15 ppm): 31
- ACI ([1]; feed 15 ppm): 155
- Lesion score ([1]; feed 15 ppm): 3.1
- RWG(%) ([1]; feed 15 ppm): 102.0%
- ADG(g/d) after challenge inoculation ([1]; feed 20 ppm): 42.1 g/day
- Oocyst excretion amount/g ([1]; feed 20 ppm): 1.56e+06 g⁻¹
- Oocyst index ([1]; feed 20 ppm): 22.9
- Survival rate after challenge inoculation (%) ([1]; feed 20 ppm): 100%
- Lesion index ([1]; feed 20 ppm): 40
- ACI ([1]; feed 20 ppm): 132
- Lesion score ([1]; feed 20 ppm): 4.0
- RWG(%) ([1]; feed 20 ppm): 95%
- Death rate according to violacein treatment condition ([3]; Control group (no acidic condition), 0.1 ppm): 64%
- Death rate according to violacein treatment condition ([3]; Control group (no acidic condition), 1 ppm): 85%
- Death rate according to violacein treatment condition ([3]; Control group (no acidic condition), 10 ppm): 100%
- Death rate according to violacein treatment condition ([3]; Control group (no acidic condition), 100 ppm, 41° C. 4 hours): 100.00%
- Acid resistance (killing efficacy after strong acidic condition) ([3]; acidic pH, 40° C., 1 hour, then neutralized): did not lose the killing efficacy
- Death rate according to violacein treatment condition ([3]; pH 2, 1 h, 0.1 ppm): 64%
- Death rate according to violacein treatment condition ([3]; pH 2, 1 h, 1 ppm): 84%
- Death rate according to violacein treatment condition ([3]; pH 2, 1 h, 10 ppm): 99%
- Death rate according to violacein treatment condition ([3]; pH 2, 1 h, 100 ppm): 100.00%
- Death rate according to violacein treatment condition ([3]; pH 2.5, 1 h, 0.1 ppm): 61%
- Death rate according to violacein treatment condition ([3]; pH 2.5, 1 h, 1 ppm): 83%
- Death rate according to violacein treatment condition ([3]; pH 2.5, 1 h, 10 ppm): 99%
- Death rate according to violacein treatment condition ([3]; pH 2.5, 1 h, 100 ppm): 100.00%
- Death rate according to violacein treatment condition ([3]; pH 3, 1 h, 0.1 ppm): 63%
- Death rate according to violacein treatment condition ([3]; pH 3, 1 h, 1 ppm): 86%
- Death rate according to violacein treatment condition ([3]; pH 3, 1 h, 10 ppm): 99%
- Death rate according to violacein treatment condition ([3]; pH 3, 1 h, 100 ppm): 100.00%
- inhibition at 0.5 ppm (Eimeria tenella; MDBK cells, 0.5 ppm, treated after invasion, 24 hours): 53.7%
- inhibition at 1 ppm (Eimeria tenella; MDBK cells, 1 ppm, treated after invasion, 24 hours): 45.8%
